# Earlier results in patent US12564599B2, “Pharmaceutical composition comprising tetrahydrocannabivarin for the prevention and treatment of overweight” (CepVentures International Corporation, priority 2019, dated 2026).
# Conditions: over a 6 month or a 1 year period
smiles,measurement,value
CC(C)CC(N(C)C)C1(c2ccc(Cl)cc2)CCC1 (stereo not shown) [Sibutramine],reduces body weight,about 10%
